The supplement of paper PMC10307832

What was measured:
Assay in all cases: relative viability (nuclei count vs DMSO), 5 days (fraction); higher = more cells survive
KN-93 + Linsitinib = compound: CN(C/C=C/C1=CC=C(C=C1)Cl)CC2=CC=CC=C2N(CCO)S(=O)(=O)C3=CC=C(C=C3)OC [KN-93] + C[C@]1(O)C[C@@H](c2nc(-c3ccc4ccc(-c5ccccc5)nc4c3)c3c(N)nccn32)C1 [Linsitinib] (partner 1 µM)
Procedure, shortened: (§1)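 Each reported value is a median over duplicate plates. It expresses relative viability: treated-well nuclei count divided by vehicle-well nuclei count. Lung cancer cell lines in 1536-well plates were dosed by pin tool a day after seeding, alone with one drug or with a fixed anchor-drug dose plus five library-drug doses (not always all listed) in √10 steps, and nuclei were counted after 5 days.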

KN-93 + Alpelisib = compound: CN(C/C=C/C1=CC=C(C=C1)Cl)CC2=CC=CC=C2N(CCO)S(=O)(=O)C3=CC=C(C=C3)OC [KN-93] + Cc1nc(NC(=O)N2CCC[C@H]2C(N)=O)sc1-c1ccnc(C(C)(C)C(F)(F)F)c1 [Alpelisib] (partner 2 µM)
Procedure, shortened: as §1

KN-93 + Bortezomib = compound: CN(C/C=C/C1=CC=C(C=C1)Cl)CC2=CC=CC=C2N(CCO)S(=O)(=O)C3=CC=C(C=C3)OC [KN-93] + CC(C)C[C@H](NC(=O)[C@H](Cc1ccccc1)NC(=O)c1cnccn1)B(O)O [Bortezomib] (partner 0.002 µM)
Procedure, shortened: as §1

KN-93 + Pictilisib = compound: CN(C/C=C/C1=CC=C(C=C1)Cl)CC2=CC=CC=C2N(CCO)S(=O)(=O)C3=CC=C(C=C3)OC [KN-93] + CS(=O)(=O)N1CCN(Cc2cc3nc(-c4cccc5[nH]ncc45)nc(N4CCOCC4)c3s2)CC1 [Pictilisib] (partner 1 µM)
Procedure, shortened: as §1

KN-93 + Crizotinib = compound: CN(C/C=C/C1=CC=C(C=C1)Cl)CC2=CC=CC=C2N(CCO)S(=O)(=O)C3=CC=C(C=C3)OC [KN-93] + C[C@@H](Oc1cc(-c2cnn(C3CCNCC3)c2)cnc1N)c1c(Cl)ccc(F)c1Cl [Crizotinib] (partner 1 µM)
Procedure, shortened: as §1

Cell Line	relative viability (KN-93 + Linsitinib; first compound 0.08 µM)	relative viability (KN-93 + Linsitinib; first compound 2.53 µM)	relative viability (KN-93 + Linsitinib; first compound 8 µM)	relative viability (KN-93 + Alpelisib; first compound 0.08 µM)	relative viability (KN-93 + Alpelisib; first compound 0.253 µM)	relative viability (KN-93 + Alpelisib; first compound 2.53 µM)	relative viability (KN-93 + Alpelisib; first compound 8 µM)	relative viability (KN-93 + Bortezomib; first compound 0.08 µM)	relative viability (KN-93 + Bortezomib; first compound 0.253 µM)	relative viability (KN-93 + Bortezomib; first compound 2.53 µM)	relative viability (KN-93 + Bortezomib; first compound 8 µM)	relative viability (KN-93 + Pictilisib; first compound 0.08 µM)	relative viability (KN-93 + Pictilisib; first compound 0.253 µM)	relative viability (KN-93 + Pictilisib; first compound 2.53 µM)	relative viability (KN-93 + Pictilisib; first compound 8 µM)	relative viability (KN-93 + Crizotinib; first compound 0.08 µM)	relative viability (KN-93 + Crizotinib; first compound 0.253 µM)	relative viability (KN-93 + Crizotinib; first compound 2.53 µM)	relative viability (KN-93 + Crizotinib; first compound 8 µM)	relative viability (KN-93 + Linsitinib; first compound 0.253 µM)
NCI-H1703	1.14	0.976	0.389	0.298	0.319	0.304	0.227	0.381	0.302	0.418	0.166	0.257	0.307	0.211	0.247	0.677	1.03	0.911	0.225	–
NCI-H1734	0.855	1.03	0.734	0.718	0.712	0.746	0.533	0.941	0.902	1.1	0.566	0.534	0.548	0.492	0.29	0.646	0.752	0.74	0.421	0.949
NCI-H1755	1.01	1.05	0.837	0.718	1.13	1.2	0.819	0.923	1.07	0.967	0.546	0.413	0.429	0.475	0.205	0.86	1.14	0.903	0.566	1.05
NCI-H1792	–	0.567	0.394	–	0.759	0.735	0.458	–	0.923	1.04	0.781	–	0.233	0.253	0.223	–	1.1	0.976	0.914	0.573
NCI-H1915	1.03	1.12	1.03	1.06	1.17	1.1	0.95	0.929	1.31	1.1	0.54	0.967	0.865	0.928	0.806	0.705	1.35	0.953	0.859	1.16
NCI-H1975	0.789	0.992	0.546	0.607	0.717	0.556	0.284	0.334	0.38	0.33	0.249	0.281	0.267	0.28	0.25	0.721	1.2	0.875	0.581	0.943
NCI-H1993	0.728	0.837	0.655	0.648	0.574	0.71	0.59	0.836	1.02	1.2	0.523	0.689	1.07	0.761	0.754	0.968	0.814	0.76	0.727	0.633
NCI-H2009	1.16	1.17	0.94	1.2	1.3	1.29	0.887	1.05	0.995	0.84	0.462	0.841	1.01	0.761	0.345	1.18	1.1	1.04	0.474	1.24
NCI-H2023	0.613	0.657	0.532	0.562	0.46	0.689	0.517	0.971	0.955	1.04	0.448	0.3	0.212	0.22	0.167	0.795	0.855	0.745	0.439	0.669
NCI-H2085	0.782	0.929	0.633	0.993	1.07	0.985	0.749	0.909	1.12	1.16	0.663	0.438	0.452	0.518	0.414	0.815	1.17	0.921	0.565	0.967
NCI-H2087	0.941	0.824	0.43	0.879	1.21	0.933	0.532	0.759	1.24	0.874	0.33	0.839	0.967	0.898	0.466	0.678	1.01	0.84	0.55	0.905
